This data set in a line: Human HepG2 cell viability assay in 384 well format. Conditions: HepG2 cells, read-out: Inhibition. Also on record: dose 125 nL, time 70.5 hour; cytotoxicity at 70.5 h: concentration not given beside the values. Format: toxicity, cell-based.
Regarding `O=C(O)c1ccn(-c2ccc(NC(=O)c3ccccc3Cl)cc2)n1`, the cytotoxicity at 70.5 h turned out to be 11.9%.

`CCC(c1ccc(F)cc1F)S(=O)(=O)CCO` (centres undefined): the cytotoxicity at 70.5 h is -1.73%.

With `CCC(c1ccccc1)S(=O)(=O)CCO` (centres undefined), the cytotoxicity at 70.5 h was -2.1%.

As for `CN1CCN(CCNC(=O)c2sccc2C2CC2)CC1`, the cytotoxicity at 70.5 h was -2.66%.

`CN(Cc1ccc(F)cc1)Cc1cc2c(cc1Br)OCCO2`: the cytotoxicity at 70.5 h was -8.04%.

Take `CC(C)(C)NC(=O)CN1CCCNCC1`: the cytotoxicity at 70.5 h was -0.58%.

On to `CN(Cc1ccccc1F)Cc1cc2c(cc1Br)OCCO2`, for which the cytotoxicity at 70.5 h is -9.57%.

For `Cn1ccnc1CN1CCCC1CCc1ccccc1` (centres undefined), the cytotoxicity at 70.5 h stood at 2.44%.

For the molecule `Cc1csc(C(C)(C)NCCOc2ccc(CC#N)cc2)n1`, the cytotoxicity at 70.5 h is -0.219%.

On to `Cc1cnn(CCNCC(=O)N2CCN(c3ccccn3)CC2)c1`, for which the cytotoxicity at 70.5 h was found to be 8.76%.

Take `CS(=O)(=O)c1ccc(NC(=O)NCCC2=CCCCC2)cc1`: the cytotoxicity at 70.5 h is -10.3%.

Consider `COCc1ccccc1NC(=O)CCNC(=O)c1ccoc1`, for which the cytotoxicity at 70.5 h is -13.1%.

As for `CN(CCc1ccccn1)C(=O)Nc1cccnc1-n1cccn1`, the cytotoxicity at 70.5 h was -16.2%.

With `FC(F)(F)c1nc(NC2CCc3ncnn3C2)c2ccccc2n1` (centres undefined), the cytotoxicity at 70.5 h was found to be 24.8%.

For `COC(=O)C1CCN(C(=O)Cn2ccc(-c3ccc(F)cc3)n2)CC1`, the cytotoxicity at 70.5 h is -8.67%.

With `O=C(Cn1ccc(-c2ccccc2)n1)N1CCN(C(=O)C2CC2)CC1`, the cytotoxicity at 70.5 h was -2.62%.

`Cc1cnn(CCNCC(=O)N2CCN(c3ncccn3)CC2)c1`: the cytotoxicity at 70.5 h was -4.23%.

Consider `Cc1sc2ccccc2c1S(=O)(=O)NCCNC(=O)C(C)C`, for which the cytotoxicity at 70.5 h was -7.05%.

For the molecule `COCc1c(Cl)cccc1NC(=O)CNC(=O)C(C)(C)C`, the cytotoxicity at 70.5 h was -4.66%.

Consider `CCc1cccnc1NCc1cnc(N2CCOCC2)nc1`, for which the cytotoxicity at 70.5 h turned out to be 20.6%.

On to `CCOCCC(=O)Nc1cccc(Cl)c1COC`, for which the cytotoxicity at 70.5 h is -2.76%.

In the case of `COc1cccc(CC2CCCN2Cc2nccn2C)c1` (centres undefined), the cytotoxicity at 70.5 h is -5%.

With `CC(NC(=O)N1CCCN(CC(F)F)CC1)c1ccco1` (centres undefined), the cytotoxicity at 70.5 h is -8.42%.

Take `CCOCCC(=O)N1CCCC(c2cc(C(F)(F)F)[nH]n2)C1` (centres undefined): the cytotoxicity at 70.5 h was -10.6%.

`CC(CNC(=O)c1ccco1)N1CCc2sccc2C1` (centres undefined): the cytotoxicity at 70.5 h was -4.45%.

For the molecule `Cc1nn(C)c2ncc(C(=O)N3CCNC(=O)C3)cc12`, the cytotoxicity at 70.5 h was -3.66%.

For the molecule `CC(=O)N(C)CC(=O)NC(C)c1ccc(OCCC(C)C)cc1` (centres undefined), the cytotoxicity at 70.5 h is -3.81%.

`Cc1nn(C)c2ncc(NC(=O)N3CCNC(=O)C3)cc12`: the cytotoxicity at 70.5 h is -6.74%.

As to `CC(C)CCOc1ccc(C(C)NC(=O)CSCC(N)=O)cc1` (centres undefined), the cytotoxicity at 70.5 h was -8.07%.

On to `CC(C)OCCC(=O)NCC(c1c(F)cccc1F)N(C)C` (centres undefined), for which the cytotoxicity at 70.5 h came out at 22.3%.

In the case of `CC(C)CC(=O)NCC(O)c1c(F)cccc1F` (centres undefined), the cytotoxicity at 70.5 h was -7.25%.

Regarding `CNC(=O)CCN(C)CC1(c2ccc(Br)cc2)CC1`, the cytotoxicity at 70.5 h was -0.48%.

With `COCC(O)CNC(=O)Nc1ccc(Cl)cc1-n1cccc1` (centres undefined), the cytotoxicity at 70.5 h is -7.23%.

As to `Cn1cc(CCC(=O)NC(c2ccc(F)cc2)C(F)(F)F)cn1` (centres undefined), the cytotoxicity at 70.5 h is -8.97%.

For the molecule `CCc1cnc(COc2ccc(OC3CCCCNC3=O)cc2)o1` (centres undefined), the cytotoxicity at 70.5 h was -4.27%.

As to `CNC(=O)CN(C)CC1(c2ccc(Br)cc2)CC1`, the cytotoxicity at 70.5 h was 0.137%.

On to `CN1CCC(NC(=O)Nc2cnn(-c3ccccc3Cl)c2)CC1`, for which the cytotoxicity at 70.5 h is -5.23%.

As to `Cc1ccc(CNC(=O)COc2ccc3c(c2)OCC3O)cc1` (centres undefined), the cytotoxicity at 70.5 h is -7.79%.

`COCCNc1nnc(S(=O)(=O)CCC(C)(C)C#N)s1`: the cytotoxicity at 70.5 h is -5.9%.

For the molecule `Cc1ccc(C(=O)N2CCOCC2C(N)=O)c(F)c1` (centres undefined), the cytotoxicity at 70.5 h was -8.13%.

For `O=C(CCn1cnc2ccccc21)N1CCN2CCCCC2C1` (centres undefined), the cytotoxicity at 70.5 h worked out at 27.2%.

Take `Cn1cc(S(=O)(=O)NCC(C)(O)c2ccsc2)cn1` (centres undefined): the cytotoxicity at 70.5 h was determined as 1.13%.

For the molecule `NC(=O)CSCCC(=O)NCC1CC1`, the cytotoxicity at 70.5 h turned out to be 3.32%.

Take `CC(C)S(=O)(=O)C(C)C(=O)NCc1ccccc1OCc1ccccc1` (centres undefined): the cytotoxicity at 70.5 h is -1.68%.

As to `CC(C)S(=O)(=O)C(C)C(=O)NCc1ccccc1COc1ccccc1` (centres undefined), the cytotoxicity at 70.5 h is -11%.

`O=C1CCN(C(=O)CCc2ccc(Cl)cc2Cl)CCN1`: the cytotoxicity at 70.5 h was -6.13%.

For the molecule `CC(=O)NCCNC(=O)NCC1Cc2ccccc2O1` (centres undefined), the cytotoxicity at 70.5 h was -4.29%.

Turning to `c1cc2c(cc1CN1CCN(Cc3noc(C4CC4)n3)CC1)OCO2`, the cytotoxicity at 70.5 h was -2.86%.

For `O=c1n(CCNCc2ccc(-c3ccccc3)cc2)nc2ccccn12`, the cytotoxicity at 70.5 h is -8.68%.

`O=C(NCC1CC(=O)N(CCc2ccccc2)C1)c1c(F)cccc1F` (centres undefined): the cytotoxicity at 70.5 h amounted to 3.42%.

On to `Cn1cccc1C(=O)OCCNC(=O)c1ccccc1`, for which the cytotoxicity at 70.5 h was -10.7%.

As for `O=C(NCC1CC(=O)N(CCc2ccccc2)C1)c1ccon1` (centres undefined), the cytotoxicity at 70.5 h is -3.55%.

As for `Cc1ccc(NC2CCN(C(=O)CCCc3ccccn3)CC2)cc1`, the cytotoxicity at 70.5 h was -8.59%.

Turning to `Cc1cc(CN(C)C(=O)NCc2ccnc(SC(C)(C)C)c2)no1`, the cytotoxicity at 70.5 h is -9.52%.

With `CC(C)c1noc(CCC(=O)N2CCCC(n3ccnc3)C2)n1` (centres undefined), the cytotoxicity at 70.5 h was -5.4%.

`Cc1nnc(C(C)Nc2cccc(COCCOC(C)C)c2)o1` (centres undefined): the cytotoxicity at 70.5 h is -1.57%.

Consider `CC(NC(=O)N1CCc2sccc2C1)c1nncn1C` (centres undefined), for which the cytotoxicity at 70.5 h is -5.43%.

With `O=C(c1ccc(-n2ccnc2)cc1)N1CCCC1`, the cytotoxicity at 70.5 h came to 34.6%.

Take `CC(NC(=O)N1CCc2ccccc2C1)c1nncn1C` (centres undefined): the cytotoxicity at 70.5 h is -13.5%.

Turning to `O=C(Nc1cccnc1-n1cncn1)C1CCC1`, the cytotoxicity at 70.5 h is -22.6%.

Regarding `Cc1ncc(C(=O)NCCNc2ncnc3sccc23)s1`, the cytotoxicity at 70.5 h is -2.99%.

For `CN(C)c1ccc(C(=O)N2CCCC2c2ccc(Cl)cc2)nn1` (centres undefined), the cytotoxicity at 70.5 h was -11.3%.

In the case of `CCOCC(=O)Nc1ccc(-n2ccc(C(N)=O)n2)cc1`, the cytotoxicity at 70.5 h was -5.89%.

Take `Cc1nnc(C(C)Nc2cccc(COCC(F)(F)C(F)F)c2)o1` (centres undefined): the cytotoxicity at 70.5 h amounted to 24.9%.

With `O=C(c1ccc(O)nc1)N1CCc2ccc(O)cc2C1`, the cytotoxicity at 70.5 h was -13%.

`CCC(C)(CC(=O)OC)NC(=O)c1ccc(C(C)=O)cc1` (centres undefined): the cytotoxicity at 70.5 h amounted to 23.7%.

As for `Cc1cc(CC(=O)NCC(O)COc2ccc(F)c(F)c2)no1` (centres undefined), the cytotoxicity at 70.5 h is -12%.

`CCC(C)(CC(=O)OC)NC(=O)c1ccc2[nH]ccc2c1` (centres undefined): the cytotoxicity at 70.5 h is -10.1%.

Take `CCC(C)(CC(=O)OC)NC(=O)c1cccc(F)c1F` (centres undefined): the cytotoxicity at 70.5 h is -14.7%.

As for `CC(=O)NCCCSC1CCN(c2ccccc2F)C1=O` (centres undefined), the cytotoxicity at 70.5 h was -11.5%.

On to `CC(=O)NCCCSC1CCCN(c2ccccc2Cl)C1=O` (centres undefined), for which the cytotoxicity at 70.5 h is -15.3%.

For the molecule `Cn1cc(C(=O)CC2CCCN2C(=O)c2ccn3ccnc3c2)cn1` (centres undefined), the cytotoxicity at 70.5 h was -10.3%.

`CCc1nc(C2CCCN(C(=O)c3c[nH]c(C(C)C)n3)C2)no1` (centres undefined): the cytotoxicity at 70.5 h was -10.9%.

For the molecule `COc1cccc(CCCN2CCC(N(C)S(C)(=O)=O)CC2)c1`, the cytotoxicity at 70.5 h was found to be 4.63%.

For the molecule `Cc1c(NCc2ccccc2C#N)cccc1S(=O)(=O)NC1CC1`, the cytotoxicity at 70.5 h was determined as 5.79%.

For the molecule `O=C(CN1CCS(=O)(=O)CC1)NC1CCOc2ccccc21` (centres undefined), the cytotoxicity at 70.5 h is -3.04%.

Regarding `CS(=O)(=O)Nc1cccc(CNC(=O)CCc2ccsc2)c1`, the cytotoxicity at 70.5 h was -1.95%.

With `O=C(Cn1cc(Cl)cn1)Nc1ccc2c(c1)OCCCO2`, the cytotoxicity at 70.5 h came to 25.9%.

Consider `CCNC(=O)C1CCCN(c2cccc(C(F)(F)F)n2)C1` (centres undefined), for which the cytotoxicity at 70.5 h was 21.5%.

On to `CC(C(=O)N1CCN(c2ccc(F)cc2)CC1)n1ccnc1` (centres undefined), for which the cytotoxicity at 70.5 h is -3.73%.

As for `O=C(CCn1ccc2ccccc21)N1CCC(Nc2cccnc2)CC1`, the cytotoxicity at 70.5 h was -1.56%.

For the molecule `COC1CCN(C(=O)Cn2nc(C)cc2C)CC1`, the cytotoxicity at 70.5 h is -3.13%.

For the molecule `O=C(NCC1CC1)C1CCCN(c2cccc(C(F)(F)F)n2)C1` (centres undefined), the cytotoxicity at 70.5 h turned out to be 19.6%.

As to `Cc1nc(CCNc2ccc(-c3nc(C)c(C)c(=O)[nH]3)cn2)cs1`, the cytotoxicity at 70.5 h is -1.37%.

With `CCCc1cc(C(=O)NCCCC(=O)N2Cc3ccccc3C2)[nH]n1`, the cytotoxicity at 70.5 h is -6.02%.

Consider `CS(=O)(=O)Cc1ccccc1NCc1cc(Cl)ccc1Cl`, for which the cytotoxicity at 70.5 h is 3.86%.

Take `COCC1CCN(CCCc2cccc(OC)c2)CC1`: the cytotoxicity at 70.5 h stood at 30.7%.

In the case of `Clc1cccc(N2CCC(NCc3ncc[nH]3)C2)c1` (centres undefined), the cytotoxicity at 70.5 h was found to be 0.765%.

On to `CCc1cc(CNC(=O)N(C2CC2)C(C)c2ccco2)on1` (centres undefined), for which the cytotoxicity at 70.5 h was found to be 23.3%.

Take `Cn1c(C2CC2)nc2cc(NC(=O)C3CC=CC3)ccc21`: the cytotoxicity at 70.5 h is -5.03%.

Take `Cc1cc(NC(=O)NCCc2cscn2)nn1C`: the cytotoxicity at 70.5 h was -4.59%.

Turning to `CC(C)c1n[nH]c(C2CN(Cc3ccno3)CCO2)n1` (centres undefined), the cytotoxicity at 70.5 h was 0.21%.

Regarding `CCc1cc(CNC(=O)N(C2CC2)C(C)c2ccco2)[nH]n1` (centres undefined), the cytotoxicity at 70.5 h was -5.28%.

In the case of `O=C(CCn1ccc2ccccc21)N1CCN(Cc2cccnc2)CC1`, the cytotoxicity at 70.5 h is 17.7%.

Consider `CCCC(=O)N(C)c1cccc2ncccc12`, for which the cytotoxicity at 70.5 h is -1.87%.

As for `Cc1ccnc(C(NC(=O)c2ccc(O)nc2C)C2CC2)n1` (centres undefined), the cytotoxicity at 70.5 h stood at 16.3%.

For `NC(=O)CN(CC1CCOC1)C1CC1` (centres undefined), the cytotoxicity at 70.5 h was -2.08%.

Take `CN(c1ccc(CNC(=O)c2ccc(O)nc2)cc1)C1CCCCC1`: the cytotoxicity at 70.5 h came out at 0.503%.

In the case of `CN(CC(=O)Nc1ccccc1C(=O)NC1CC1)Cc1ccccc1Cl`, the cytotoxicity at 70.5 h is 0.515%.

With `COc1cc(C2(C(=O)NC3CCN(CC4CC4)CC3)CC2)ccc1C`, the cytotoxicity at 70.5 h was -6%.

Take `COc1ccc(-c2n[nH]cc2CNC2CCN(C3CC3)CC2)cc1`: the cytotoxicity at 70.5 h is -2.67%.

In the case of `CC(C)C(N)CNS(=O)(=O)Cc1cccc2cccnc12` (centres undefined), the cytotoxicity at 70.5 h was -7.49%.

With `NC(CNS(=O)(=O)Cc1cccc2cccnc12)c1ccccc1` (centres undefined), the cytotoxicity at 70.5 h turned out to be 28.4%.

Consider `NC(=O)C(c1ccc(F)cc1)N1CCN(CCO)CC1` (centres undefined), for which the cytotoxicity at 70.5 h is -6.75%.

For the origin of these results see ChEMBL document CHEMBL3507680, “University of Dundee, Gates Library screen for HepG2 cell viability”.
